Results: patent US20140045847A1, “CRYSTALLINE FORM OF A SALT OF A MORPHOLINO SULFONYL INDOLE DERIVATIVE AND A PROCESS FOR ITS PREPARATION” (PIRAMAL ENTERPRISES LIMITED, priority 2011, published 2014)

What was measured:
human tumor cell lines = settings: mesenchymal, epithelial and hematopoietic tumor cell lines; Carboni et al. 2009; cited from earlier work
[1] = Stability of the solid form under stress conditions; assay type: physicochemical
pIGF-1R = molecular target: T1, pIGF-1R (Homo sapiens, UniProt P08069); test: IGF-1R autophosphorylation assay (Western blot), pIGF-1R; assay type: cell-based; settings: 1 h treatment, IGF-1 50 ng/mL stimulation
T1 construct: endogenous in cells
Procedure: (§1) Cells were grown and maintained in a medium containing 10% FBS. Cells grown as subconfluent monolayer, were subjected to serum starvation by replacing the respective culture medium with plain medium (containing no serum) and incubated for about 16 h at 37° C. in 5% CO2 incubator. Serum starved cells were treated with compound I at different concentrations for 1 h at 37° C. in 5% CO2 incubator and stimulated with IGF-1 (50 ng/mL) for the last 5 minutes of treatment with Compound I. After stimulation cells were washed twice with cold 1×PBS, pH 7.2 and cell lysates were prepared using CelLytic™ M cell lysis reagent (Sigma) containing protease and phosphatase inhibitors. Estimation of the total protein content in each cell lysate was carried out using Bradford reagent. Equal amount of protein from each lysate was subjected to Sodium Dodecyl Sulphate-Polyacrylamide Gel Electrophoresis (SDS-PAGE) followed by Western blotting protocol using specific antibody to pIGF-1R, IGF-1Rβ, pAkt, Akt, Pp70S6, p70S6, Pp44/42, p44/42 and loading control, β-actin. Imaging was done with BIO-RAD Image-Lab Software. The band density was then estimated using the software Image J. From the band densities of the various proteins at different concentrations of Compound I, the IC50 concentrations for various proteins were calculated, and are enumerated in Table 3.

pAkt = test: IGF-1R autophosphorylation assay (Western blot), pAkt; assay type: cell-based, human; settings: 1 h treatment, IGF-1 50 ng/mL stimulation
Procedure: as §1

Pp70S6 = test: IGF-1R autophosphorylation assay (Western blot), Pp70S6; assay type: cell-based, human; settings: 1 h treatment, IGF-1 50 ng/mL stimulation
Procedure: as §1

[2] = molecular target: T2, intracellular kinase domain of human IGF-1R (GST fusion protein) (Homo sapiens, UniProt P08069); test: In vitro IGF-1R kinase assay (HTRF); assay type: biochemical; settings: ATP 20 μM, IGFRK 0.25 nM, read-out: IC50 IGF-1R enzyme
T2 construct: intracellular kinase domain of human IGF-1R and expressed as GST fusion proteins; GST; made in house
Procedure: The in vitro kinase assays using IGF-1R kinase GST fusion proteins were conducted using a homogeneous time-resolved fluorescence (HTRF) format. Kinase reactions were carried out in a 384-well plate format in a final volume of 20 μL. The standard enzyme reaction buffer consisted of 50 mM Tris HCL (pH: 7.4), 1 mM EGTA, 10 mM MgCl2, 2 mM DTT, 0.01% Tween-20, IGF-1R/IR kinase enzyme, poly GT peptide substrate (Perkin Elmer [Ulight Glu-Tyr (4:1)]n) and ATP [concentration equivalent to Kmapp]. […] Europium cryptate—labeled antiphosphotyrosine antibody PY20 (5 μL) was added (final concentration of 2 nM) and the mixture was allowed to equilibrate for 1 hour at 23° C. followed by reading the plate in an Envision plate reader. […] The IC50 values for Compound I in both, the crystalline form and the amorphous form were determined by a four-parameter sigmoidal curve fit (Sigma plot or Graph pad) as represented in Table 2.
IGFRK enzyme used for the assay was intracellular kinase domain of human IGF-1R and expressed as GST fusion proteins using the baculovirus expression system and purified using glutathione—Sepharose column. […]

MCF7 cells = test: Anti-proliferative assay (CellTiter-Glo), MCF7; assay type: cell-based; settings: Homo sapiens; MCF7, 72 h, 100 ng/mL IGF-1 without FCS
Procedure: (§2) The cancer cell lines were seeded in triplicate (at density, from 3000-5000 cells/well depending on cell type) with 10% FCS in 180 μL of culture medium in tissue culture grade 96 well plates and allowed to recover for 24 h in humidified 5% CO2 incubator at 37±1° C. […] Compound I in crystalline form was used at concentration range of 0.1, 1, 3 and 10 μM and the plates were incubated for 72 h in humidified 5% CO2 incubator at 37±1° C. Control wells were treated with vehicle (DMSO). At the end of the incubation periods, the plates were assayed by the CellTiter-Glo® Luminescent Cell Viability assay protocol. Percent cytoxicity was calculated at the various drug concentrations. Graph for cytotoxicity vs. concentration of Compound I was plotted, and the IC50 values were determined
(§3) The CellTiter-Glo® Luminescent Cell Viability Assay is a homogeneous method to determine the number of viable cells in culture based on quantitation of the ATP present, which signals the presence of metabolically active cells. The amount of ATP is directly proportional to the number of cells present in culture
(§4) • 1. […] The luminescence is recorded using the POLARstar optima plate reader […] Values are IC50 in nM for different cell lines are provided for the crystalline form of Compound I in Table 4.

RD-ES cells = test: Anti-proliferative assay (CellTiter-Glo), RD-ES; assay type: cell-based; settings: Homo sapiens, 72 h, 100 ng/mL IGF-1 without FCS
Procedure: as §2, §3, §4

RD cells = test: Anti-proliferative assay (CellTiter-Glo), RD; assay type: cell-based; settings: Homo sapiens, 72 h, 100 ng/mL IGF-1 without FCS
Procedure: as §2, §3, §4

SK-ES cells = test: Anti-proliferative assay (CellTiter-Glo), SK-ES; assay type: cell-based; settings: Homo sapiens, 72 h, 100 ng/mL IGF-1 without FCS
Procedure: as §2, §3, §4

HCT116 cells = test: Anti-proliferative assay (CellTiter-Glo), HCT116; assay type: cell-based; settings: Homo sapiens, HCT-116; HCT116, 72 h, 100 ng/mL IGF-1 without FCS
Procedure: as §2, §3, §4

A673 cells = test: Anti-proliferative assay (CellTiter-Glo), A673; assay type: cell-based; settings: Homo sapiens; A673, 72 h, 100 ng/mL IGF-1 without FCS
Procedure: as §2, §3, §4

[3] = Homo sapiens, A673, 1 h, A673 cells
[4] = MCF7 cells, listed as Crystalline form

T1 sequence (P08069 31-1367): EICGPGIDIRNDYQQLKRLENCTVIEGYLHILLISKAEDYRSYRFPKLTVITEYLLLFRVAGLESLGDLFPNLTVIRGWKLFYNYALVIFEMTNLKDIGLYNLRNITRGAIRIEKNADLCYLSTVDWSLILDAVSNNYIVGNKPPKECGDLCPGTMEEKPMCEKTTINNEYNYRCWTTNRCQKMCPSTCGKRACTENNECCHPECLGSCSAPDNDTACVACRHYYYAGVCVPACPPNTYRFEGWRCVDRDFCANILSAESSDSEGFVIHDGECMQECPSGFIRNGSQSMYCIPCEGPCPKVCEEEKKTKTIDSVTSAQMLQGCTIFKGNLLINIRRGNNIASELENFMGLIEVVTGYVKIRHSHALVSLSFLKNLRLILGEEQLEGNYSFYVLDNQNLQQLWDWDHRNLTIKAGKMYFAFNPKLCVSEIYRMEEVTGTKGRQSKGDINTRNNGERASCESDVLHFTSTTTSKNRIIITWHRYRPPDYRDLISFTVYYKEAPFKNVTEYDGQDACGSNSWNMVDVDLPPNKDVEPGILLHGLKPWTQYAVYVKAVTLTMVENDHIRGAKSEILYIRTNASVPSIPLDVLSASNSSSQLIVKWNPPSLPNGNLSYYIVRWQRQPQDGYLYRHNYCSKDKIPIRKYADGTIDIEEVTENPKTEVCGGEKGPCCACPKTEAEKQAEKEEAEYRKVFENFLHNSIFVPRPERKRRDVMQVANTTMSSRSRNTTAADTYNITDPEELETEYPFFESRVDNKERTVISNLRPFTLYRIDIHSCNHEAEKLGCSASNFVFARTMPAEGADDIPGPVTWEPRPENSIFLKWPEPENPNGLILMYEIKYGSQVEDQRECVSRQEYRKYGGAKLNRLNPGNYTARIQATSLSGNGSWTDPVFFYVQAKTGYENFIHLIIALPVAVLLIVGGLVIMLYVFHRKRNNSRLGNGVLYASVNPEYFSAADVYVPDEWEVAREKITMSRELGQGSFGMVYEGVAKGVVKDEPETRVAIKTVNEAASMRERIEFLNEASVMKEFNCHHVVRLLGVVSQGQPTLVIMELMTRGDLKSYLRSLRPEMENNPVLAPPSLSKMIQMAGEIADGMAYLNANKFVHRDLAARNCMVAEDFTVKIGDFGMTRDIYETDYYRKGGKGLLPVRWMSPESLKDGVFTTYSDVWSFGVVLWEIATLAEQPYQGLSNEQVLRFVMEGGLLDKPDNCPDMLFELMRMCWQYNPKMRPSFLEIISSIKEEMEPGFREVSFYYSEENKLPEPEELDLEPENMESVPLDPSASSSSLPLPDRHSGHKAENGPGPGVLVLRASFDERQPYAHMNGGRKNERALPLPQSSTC
T2 sequence (P08069 999-1274 limits assumed): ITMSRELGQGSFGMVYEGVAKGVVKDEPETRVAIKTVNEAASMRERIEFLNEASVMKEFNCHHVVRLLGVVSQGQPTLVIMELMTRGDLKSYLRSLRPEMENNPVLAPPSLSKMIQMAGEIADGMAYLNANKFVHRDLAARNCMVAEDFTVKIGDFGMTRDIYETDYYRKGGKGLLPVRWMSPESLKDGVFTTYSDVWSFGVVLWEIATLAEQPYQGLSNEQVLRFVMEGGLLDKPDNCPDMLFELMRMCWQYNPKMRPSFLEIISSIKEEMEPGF

In the case of `C[C@@]1(C(=O)Nc2ccc(F)nc2)CCCN1c1nc(Nc2cc(C3CC3)n[nH]2)c2cccn2n1` [BMS-754807], the “inhibition of growth of human tumor types in vitro” value (human tumor cell lines) is given as “effectively inhibits the growth”.

With `CCOC(=O)N1CCC(Nc2cc(Cl)cc3c(S(=O)(=O)N4CCO[C@H](COc5ccccc5)C4)c(C(N)=O)[nH]c23)CC1` [Compound I (amorphous form), (S)-ethyl 4-(2-carbamoyl-5-chloro-3-(2-(phenoxymethyl)morpholinosulfonyl)-1H-indol-7-ylamino)piperidine-1-carboxylate methane sulfonate] the “stability under stress conditions” value ([1]; listed as amorphous form of Compound I) was “unstable under stress conditions”, the IC50 (pIGF-1R; A673 cells) was under 10 nM and the IC50 (pIGF-1R; Colo205 cells) was 400 nM. For the same molecule, the IC50 (pIGF-1R; MCF7 cells) was 15 nM, the IC50 (pAkt; Colo205 cells, listed as Amorphous form) was 620 nM and the IC50 (pAkt; [3]) was 260 nM. It also gave an IC50 (pAkt; MCF7 cells, listed as Amorphous form) of 380 nM, an IC50 (Pp70S6; [3]) of 450 nM and an IC50 (Pp70S6; Homo sapiens, MCF7, 1 h, MCF7 cells) of 680 nM.

For `CCOC(=O)N1CCC(Nc2cc(Cl)cc3c(S(=O)(=O)N4CCO[C@H](COc5ccccc5)C4)c(C(N)=O)[nH]c23)CC1` [Compound I (crystalline form), (S)-ethyl 4-(2-carbamoyl-5-chloro-3-(2-(phenoxymethyl)morpholinosulfonyl)-1H-indol-7-ylamino)piperidine-1-carboxylate methane sulfonate], the IC50 [2] was 22 nM, the IC50 (MCF7 cells) was 160 nM and the “stability under stress conditions” value ([1]; listed as crystalline form of Compound I) was “stable with reproducible pharmacological activity even under stress conditions”. The IC50 (RD-ES cells) was 250 nM, the IC50 (pIGF-1R; A673 cells) was 30 nM and the IC50 (pIGF-1R; Colo205 cells) was 46 nM. For the same molecule, the IC50 (RD cells) was 1400 nM, the IC50 (pAkt; A673 cells) was 220 nM and the IC50 (pAkt; Colo205 cells, listed as Crystalline form) was 23 nM. The IC50 (pAkt; [4]) was 50 nM, the IC50 (SK-ES cells) was 450 nM and the IC50 (HCT116 cells) was 900 nM. The IC50 (Pp70S6; [4]) was 460 nM and the IC50 (A673 cells) was 1800 nM.
